Experimental data: patent US20260297109A1, “COMPOUNDS AS SUMO ACTIVATING ENZYME INHIBITORS” (WIGEN BIOMEDICINE TECHNOLOGY (SHANGHAI) CO., LTD., priority 2022, published 2026)
Read-outs that look alike come from different tables or passages of the source.

Assays:
[1] = In vivo pharmacokinetic experiment in CD-1 female mice, intravenous; settings: CD-1 mice; for Plasma AUClast: plasma (Table 4); for C0 / clearance / half-life / AUC(0-t) / Cmax / Vd / blood plasma ratio: mouse; for Vd: read-out: Vdss; for blood plasma ratio: in vivo, iv
Method: Biological Example 3. In Vivo Pharmacokinetic Experiment of Compound of the Present Disclosure
[…] The mice were fasted for at least 12 h before the administration and given food after the administration, and they were given ad libitum access to water during the experiment. On the day of the experiment, animals in the intravenous group were administered the corresponding compound by single injection via the tail vein at an administration volume of 0.2 mL/animal. The sample collection time was 0.083 h, 0.167 h, 0.5 h, 1 h, 2 h, 4 h, 8 h, and 24 h. About 150 μL of whole blood was collected through the submaxillary venous plexus at each time point (30 μL of whole blood was diluted with ultrapure water at a ratio of 1:3, and 120 μL of whole blood was centrifuged to obtain plasma) and used for concentration determination by high-performance liquid chromatography-tandem mass spectrometry (LC-MS/MS). All animals were sacrificed after the PK samples were collected at the last time point. The plasma concentration was processed using a non-compartmental model of Phoenix WinNonlin™ version 8.3 (Certara) pharmacokinetic software, and the pharmacokinetic parameters were calculated using a linear-log trapezoidal method.

SAE = molecular target: T1, SAE (Homo sapiens, UniProt Q9UBT2); experiment: SUMO IF: in vitro inhibitory activity assay against SAE in HCT116 cells (SUMO-2/3 immunofluorescence); assay type: cell-based; settings: numeric values, 6 h at 37° C.
T1 construct: endogenous in cells; host or cells: HCT116
T1 sequence (Q9UBT2 1-640): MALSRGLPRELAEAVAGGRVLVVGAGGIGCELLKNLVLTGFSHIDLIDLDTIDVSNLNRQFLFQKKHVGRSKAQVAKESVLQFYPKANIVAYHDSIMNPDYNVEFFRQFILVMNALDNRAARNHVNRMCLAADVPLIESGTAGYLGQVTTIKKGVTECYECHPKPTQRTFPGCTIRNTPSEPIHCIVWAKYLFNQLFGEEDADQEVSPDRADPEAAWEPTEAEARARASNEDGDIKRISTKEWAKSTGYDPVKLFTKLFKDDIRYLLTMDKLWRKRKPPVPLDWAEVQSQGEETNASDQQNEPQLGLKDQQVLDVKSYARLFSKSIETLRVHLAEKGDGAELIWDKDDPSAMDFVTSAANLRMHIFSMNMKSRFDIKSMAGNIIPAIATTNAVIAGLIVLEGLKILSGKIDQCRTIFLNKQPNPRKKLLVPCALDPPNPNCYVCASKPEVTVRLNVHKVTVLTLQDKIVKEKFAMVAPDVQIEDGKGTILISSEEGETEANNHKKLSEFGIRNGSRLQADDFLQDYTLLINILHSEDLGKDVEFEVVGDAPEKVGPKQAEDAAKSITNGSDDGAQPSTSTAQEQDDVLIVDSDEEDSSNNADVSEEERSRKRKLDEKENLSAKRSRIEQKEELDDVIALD
T1 sequence (Q9UBE0 1-346): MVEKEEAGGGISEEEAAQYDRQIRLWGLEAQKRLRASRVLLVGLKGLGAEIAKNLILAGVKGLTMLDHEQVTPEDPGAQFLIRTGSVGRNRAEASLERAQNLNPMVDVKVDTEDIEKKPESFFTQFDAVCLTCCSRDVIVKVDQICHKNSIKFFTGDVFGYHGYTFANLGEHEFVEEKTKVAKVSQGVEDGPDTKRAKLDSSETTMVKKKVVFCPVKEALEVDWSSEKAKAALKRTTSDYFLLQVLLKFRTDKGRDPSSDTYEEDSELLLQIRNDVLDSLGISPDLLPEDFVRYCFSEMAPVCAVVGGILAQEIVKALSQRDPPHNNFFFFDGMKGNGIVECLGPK
How it was run: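 HCT116 cells were treated with compound for 6 h at 37 °C, then PFA-fixed, Triton-permeabilised and BSA-blocked. They were stained overnight at 4 °C with anti-SUMO-2/3 (18H8) rabbit mAb (1:400), then with FITC anti-rabbit IgG (1:300). Fluorescence versus DMSO gave inhibition rate and IC50.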

[2] = 2 mg/kg, 2 mpk, plasma, read-out: AUClast
[3] = 2 mg/kg, 2 mpk, plasma, read-out: Cmax
[4] = 2 mg/kg, 2 mpk, whole blood, read-out: Whole blood AUClast
[5] = 2 mg/kg, 2 mpk, whole blood, read-out: Whole blood Cmax
[6] = 2 mg/kg, 2 mpk, read-out: Whole blood AUClast/plasma AUClast ratio
[7] = 2 mg/kg, 2 mpk, read-out: Whole blood Cmax/plasma Cmax ratio

Compound	IC50 (SAE) [nM]	Plasma AUClast ([1]; 2 mpk) [ng·h/mL]	C0 ([1]; 2 mg/kg, 2 mpk, plasma) [ng/mL]	clearance ([1]; 2 mg/kg, 2 mpk, plasma) [mL/min/kg]	half-life ([1]; 2 mg/kg, 2 mpk, plasma) [h]	AUC(0-t) [1, 2] [ng·h/mL]	Cmax [1, 3] [ng/mL]	Vd ([1]; 2 mg/kg, 2 mpk, plasma) [L/kg]	AUC(0-t) [1, 4] [ng·h/mL]	Cmax [1, 5] [ng/mL]	blood plasma ratio [1, 6]	blood plasma ratio [1, 7]	other results
Cc1sc(C(=O)c2cncnc2N[C@H]2C[C@H](O)[C@@H](COS(N)(=O)=O)[C@@H]2F)cc1[C@@H]1NCCc2ccc(Cl)cc21 [Compound 233]	42.6												Plasma AUClast ([1]; 1 mpk): 132 ng·h/mL; C0 ([1]; 1 mg/kg, 1 mpk, plasma): 77 ng/mL; clearance ([1]; 1 mg/kg, 1 mpk, plasma): 103 mL/min/kg; half-life ([1]; 1 mg/kg, 1 mpk, plasma): 3.63 h; AUC(0-t) ([1]; 1 mg/kg, 1 mpk, plasma, read-out: AUClast): 132 ng·h/mL; Cmax ([1]; 1 mg/kg, 1 mpk, plasma, read-out: Cmax): 58 ng/mL; Vd ([1]; 1 mg/kg, 1 mpk, plasma): 27.6 L/kg; AUC(0-t) ([1]; 1 mg/kg, 1 mpk, whole blood, read-out: Whole blood AUClast): 30100 ng·h/mL; Cmax ([1]; 1 mg/kg, 1 mpk, whole blood, read-out: Whole blood Cmax): 4430 ng/mL; blood plasma ratio ([1]; 1 mg/kg, 1 mpk, read-out: Whole blood AUClast/plasma AUClast ratio): 228; blood plasma ratio ([1]; 1 mg/kg, 1 mpk, read-out: Whole blood Cmax/plasma Cmax ratio): 76.3
NS(=O)(=O)OC[C@H]1[C@H](F)[C@@H](Nc2ncncc2C(=O)c2cc3c(s2)C=C[C@]32NCCc3ccc(Cl)cc32)C[C@@H]1O [Compound 344]	20.7	345	249	94.9	1.48	345	299	8.65	17000	7780	49.2	26	
NS(=O)(=O)OC[C@H]1[C@H](F)[C@@H](Nc2ncncc2C(=O)c2cc3c(s2)CCC[C@]32NCCc3ccc(Cl)cc32)C[C@@H]1O [Compound 90]	21.1	615	431	53.1	4.73	615	331	12.7	46600	13400	75.7	40.5	
NS(=O)(=O)OC[C@H]1[C@H](F)[C@@H](Nc2ncncc2C(=O)c2cc3c(s2)CCC[C@]32NCCc3ccc(F)cc32)C[C@@H]1O [Compound 93]	32.1	448	406	71.1	1.88	448	281	9.18	25100	13300	56	47.4	
